Data published in patent US8883798B2, “Pyrimidine compounds inhibiting the formation of nitric oxide and prostaglandin E2, method of production thereof and use thereof” (Ustav Organicke Chemie a Biochemie Akademie Ved CR, V.V.I., priority 2011, dated 2014).

Key:
[1] = tested on: production of nitric oxide (NO); test: Production of nitric oxide (NO) in cultures of mouse peritoneal cells stimulated with IFN-γ plus LPS (Griess reagent); type: cell-based, mice; details: substance 50 μmol·l^−1, IFN-g plus LPS, 24 h
Outline: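 C57BL/6 mouse peritoneal cells (2×10^6/mL) stimulated with IFN-γ (5000 pg/mL) plus LPS (100 pg/mL), compounds at 50 μmol·l^−1. Nitrite measured by Griess reagent after 24 h, expressed as % of stimulated control (set 100%); IC50 is concentration reducing NO by 50%.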

[2] = tested on: production of prostaglandin E2 (PGE2); test: Production of prostaglandin E2 (PGE2) in cultures of mouse peritoneal cells stimulated with LPS (ELISA kit); type: cell-based, mice; details: for Production of prostaglandins IC50 (μmol · 1^−1) average value and range of values: Table 3B, 6 h; for Production of prostaglandins in % of the controls: Table 3A, substance 50 μmol·l^−1, 6 h
Outline: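 C57BL/6 mouse peritoneal cells (3×10^6/mL) stimulated with LPS (10 ng/mL). PGE2 measured by ELISA.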

[3] = tested on: peritoneal cells of mice; test: Cell viability of mouse peritoneal cells (WST-1 kit); type: cell-based; details: substance 50 μmol·l^−1, 24 h; for Cell viabilities in % of the controls: Table 3B; for Cell viability in % of the controls: Table 3A
Outline: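 C57BL/6 mouse peritoneal cells (1×10^6/mL) cultured 24 h with compounds at 50 μmol·l^−1. Viability read with WST-1 tetrazolium salt and expressed as percent of untreated control cells (100%).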

Structure (SMILES)	Production of prostaglandins IC50 (μmol · 1^−1) average value and range of values [2]	Production of nitric oxide in % of the controls ([1]; Table 3B)	Cell viabilities in % of the controls [3]	Production of nitric oxide in % of the controls ([1]; Table 3A)	Production of prostaglandins in % of the controls [2]	Cell viability in % of the controls [3]
CCCCc1c(-c2ccc(OC)cc2)nc(N)nc1-c1ccco1 [Substance 96]	43.05 ± 21.74; n = 4 μmol · 1^−1	50.99 ± 2.60; n = 4 % of the controls	113.53 ± 4.93; n = 8 % of the controls			
CCC(C)c1c(Cl)nc(NC=O)nc1Cl (stereo not drawn) [Substance 54]				0.17 ± 0.17 % of the controls	30.48 ± 1.79 % of the controls	77.51 ± 14.73 % of the controls
CCCCc1c(-c2ccc(F)cc2)nc(N)nc1-c1ccco1 [Substance 95]	70.79 ± 11.61; n = 4 μmol · 1^−1	61.96 ± 6.41; n = 6 % of the controls	119.71 ± 4.71; n = 8 % of the controls			
CCCCc1c(-c2ccsc2)nc(N)nc1-c1cccc2ccccc12 [Substance 140]	40.66 ± 6.87; n = 2 μmol · 1^−1	30.16 ± 2.96; n = 4 % of the controls	94.34 ± 2.62; n = 4 % of the controls			
CCCCc1c(-c2ccccc2)nc(N)nc1-c1cccc2ccccc12 [Substance 133]	61.74 ± 17.48; n = 2 μmol · 1^−1	49.60 ± 9.26; n = 4 % of the controls	110.75 ± 3.69; n = 4 % of the controls			
CCC(C)c1c(Cl)nc(N=CN(C)C)nc1Cl (stereo not drawn) [Substance 21]				0.69 ± 0.12 % of the controls	8.14 ± 0.07 % of the controls	122.65 ± 14.39 % of the controls
CCCCc1c(-c2ccc(OC)cc2)nc(N)nc1-c1cc2ccccc2o1 [Substance 117]	64.65 ± 4.88; n = 2 μmol · 1^−1	89.91 ± 4.02; n = 6 % of the controls	75.92 ± 9.72; n = 8 % of the controls			
CCCCc1c(-c2ccc(F)cc2)nc(N)nc1-c1cccs1 [Substance 87]	23.05 ± 11.33; n = 4 μmol · 1^−1	48.59 ± 10.92; n = 3 % of the controls	125.94 ± 4.49; n = 8 % of the controls			
CCCCc1c(-c2ccncc2)nc(N)nc1-c1ccco1 [Substance 98]	62.49 ± 11.98; n = 4 μmol · 1^−1	54.42 ± 2.64; n = 6 % of the controls	69.84 ± 3.62; n = 8 % of the controls			
CCCc1c(Cl)nc(N)nc1Cl [Substance 27]				46.98 ± 10.25 % of the controls	31.73 ± 4.35 % of the controls	87.86 ± 9.18 % of the controls
CCCCc1c(-c2ccc(F)cc2)nc(N)nc1-c1ccc(OC)cc1 [Substance 73]	3.92 ± 1.85; n = 4 μmol · 1^−1	65.09 ± 4.11; n = 6 % of the controls	130.12 ± 10.97; n = 12 % of the controls			
CN(C)C=Nc1nc(Cl)c(-c2ccccc2)c(Cl)n1 [Substance 24]				4.97 ± 2.00 % of the controls	18.45 ± 13.68 % of the controls	80.00 ± 11.61 % of the controls
CCCCc1c(Cl)nc(NN)nc1Cl.Cl [Substance 146]	1.61 ± 0.27; n = 4 μmol · 1^−1	86.28 ± 9.01; n = 6 % of the controls	103.28 ± 4.62; n = 8 % of the controls			
CCCCc1c(-c2ccccc2)nc(N)nc1-c1cccs1 [Substance 86]	27.57 ± 8.77; n = 4 μmol · 1^−1	47.57 ± 8.58; n = 6 % of the controls	101.59 ± 9.19; n = 8 % of the controls			

Second part, led by results:

Production of prostaglandins IC50 (μmol · 1^−1) average value and range of values [2]	Structure (SMILES)	Production of nitric oxide in % of the controls ([1]; Table 3B)	Cell viabilities in % of the controls [3]	Production of nitric oxide in % of the controls ([1]; Table 3A)	Production of prostaglandins in % of the controls [2]	Cell viability in % of the controls [3]
14.19 ± 4.00; n = 6 μmol · 1^−1	CCCCc1c(-c2ccc(OC)cc2)nc(N)nc1-c1cccs1 [Substance 88]	69.14 ± 9.10; n = 2 % of the controls	125.52 ± 5.28; n = 8 % of the controls			
18.35 ± 3.26; n = 4 μmol · 1^−1	CCCCc1c(-c2ccoc2)nc(N)nc1-c1cccc2ccccc12 [Substance 139]	70.38 ± 4.95; n = 6 % of the controls	104.41 ± 10.83; n = 8 % of the controls			
43.57 ± 4.53; n = 2 μmol · 1^−1	CCCCc1c(-c2ccco2)nc(N)nc1-c1cccc2ccccc12 [Substance 138]	42.92 ± 3.77; n = 4 % of the controls	93.61 ± 5.46; n = 4 % of the controls			
22.10 ± 3.44; n = 4 μmol · 1^−1	CCCCc1c(Cl)nc(N)nc1-c1ccoc1 [Substance 106]	54.83 ± 2.82; n = 4 % of the controls	100.38 ± 5.55; n = 8 % of the controls			
76.75 ± 10.63; n = 4 μmol · 1^−1	CCCCc1c(-c2ccccc2)nc(N)nc1-c1ccccc1 [Substance 67]	80.37 ± 1.36; n = 4 % of the controls	93.60 ± 2.81; n = 4 % of the controls			
37.00 ± 16.33; n = 4 μmol · 1^−1	CCCCc1c(-c2ccsc2)nc(N)nc1-c1ccsc1 [Substance 114]	70.51 ± 5.78; n = 4 % of the controls	118.67 ± 2.26; n = 8 % of the controls			
83.44 ± 11.03; n = 2 μmol · 1^−1	CCCCc1c(-c2ccncc2)nc(N)nc1-c1cc2ccccc2o1 [Substance 120]	65.32 ± 3.72; n = 4 % of the controls	92.51 ± 2.77; n = 4 % of the controls			
22.90 ± 11.94; n = 4 μmol · 1^−1	CCCCc1c(Cl)nc(N)nc1-c1ccsc1 [Substance 115]	37.43 ± 8.29; n = 6 % of the controls	107.17 ± 2.03; n = 8 % of the controls			
13.48 ± 1.94; n = 4 μmol · 1^−1	CCCCc1c(-c2ccc(OC)cc2)nc(N)nc1-c1ccccn1 [Substance 77]	58.20 ± 5.42; n = 6 % of the controls	100.86 ± 11.78; n = 4 % of the controls			
87.25 ± 13.99; n = 2 μmol · 1^−1	CCCCc1c(Cl)nc(N)nc1-c1cc2ccccc2o1 [Substance 126]	78.18 ± 9.03; n = 4 % of the controls	102.56 ± 5.92; n = 4 % of the controls			
38.26 ± 14.52; n = 8 μmol · 1^−1	CCCCc1c(-c2ccccn2)nc(N)nc1-c1cc2ccccc2s1 [Substance 127]	40.88 ± 6.83; n = 4 % of the controls	130.66 ± 2.87; n = 8 % of the controls			
92.02 ± 8.95; n = 4 μmol · 1^−1	CCCCc1c(Cl)nc(N)nc1-c1cccnc1 [Substance 82]	12.07 ± 2.39; n = 8 % of the controls	45.38 ± 2.92; n = 12 % of the controls			
56.31 ± 19.61; n = 8 μmol · 1^−1	CCCCc1c(-c2cccs2)nc(N)nc1-c1cc2ccccc2s1 [Substance 130]	43.43 ± 7.18; n = 10 % of the controls	130.68 ± 8.17; n = 12 % of the controls			
6.60 ± 5.34; n = 4 μmol · 1^−1	CCCCc1c(Cl)nc(N)nc1-c1ccco1 [Substance 101]	29.35 ± 6.38; n = 6 % of the controls	68.95 ± 3.02; n = 8 % of the controls			
80.60 ± 4.63; n = 2 μmol · 1^−1	CCCCc1c(Cl)nc(NC(C)=O)nc1Cl [Substance 147]	15.32 ± 2.33; n = 6 % of the controls	113.28 ± 8.99; n = 8 % of the controls			
51.70 ± 13.80; n = 2 μmol · 1^−1	CCCCc1c(-c2ccc(F)cc2)nc(N)nc1-c1ccc(F)cc1 [Substance 70]	87.03 ± 3.75; n = 4 % of the controls	108.03 ± 9.80; n = 4 % of the controls			
48.18 ± 19.94; n = 4 μmol · 1^−1	CCCCc1c(-c2cccnc2)nc(N)nc1-c1ccco1 [Substance 97]	37.05 ± 6.68; n = 6 % of the controls	45.54 ± 4.96; n = 8 % of the controls			
